Legend:
[1] = test system: TRAP activity in RAW 264.7 monocyte-macrophage cells differentiated into OCL; assay: Fluorescent per-well TRAP activity assay in RAW cells differentiated into OCL; format: cell-based; details: for Compound amount at which decrease of TRAP fluorescence is maximal / Compound amount at which dramatic decrease of TRAP fluorescence starts / Inhibition of TRAP activity (result in words) / Effect on detection of TRAP fluorescence: day 6, FIG. 4; for Inhibition of TRAP activity (result in words): IC50's comparable to previously published data; for Effect on TRAP activity: day 6; for Effect on detection of TRAP fluorescence: up to 10.0 uM
Procedure: (§1) RAW (RAW 264.7 monocyte-macrophage) RAW (ATTC, Manassas, Va.) cells were maintained in culture using DMEM (Dulbecco's Modified Eagle Medium) media containing L-glutamine at 584 mg/L, 1% penicillin/streptomycin, and 10% FBS (fetal bovine serum). For osteoclast differentiation RAW cells were put down onto 96 well plates at a density of 1,000 cells per well in alpha MEM (Minimum Essential Medium) media containing L-glutamine at 292 mg/L, 1% penicillin/streptomycin, 10% FBS, soluble RANKL (PeproTech, Rocky Hill, N.J.) at 10 ng/ml, and M-CSF (Cell Sciences, Norwood, Mass.) at 25 ng/ml. All media were changed every two days. For experiments with compounds, the compounds were added at the time of plating the cells in differentiation media. Additionally compounds were replenished during every media change leading up to the day 6 termination of the experiment.
(§2) Media was removed and cells were fixed onto their plated surface with 4% formaldehyde (Sigma, Saint Louis, Mo.) in PBS (Phosphate Buffer Saline) solution for 20 minutes. After fixing, cells were permeablized in PBS with 0.1% Tween (Sigma, Saint Louis, Mo.) for 15 minutes. Cells were then incubated with 200 uM of ELF 97 phosphatase substrate (Molecular Probes, Eugene, Oreg.) for 15 minutes in a 3.4 mM acetate buffered solution (pH 5.0) containing 6.7 mM Tartrate (Sigma, Saint Louis, Mo.). These conditions (of slightly acidic pH and high concentrations of tartrate) discriminate TRAP activity from other phosphatases. Cells were then washed twice with PBS (pH 7.4). After the final wash, plates were immediately quantified for TRAP activity.
(§3) Quantification of TRAP TRAP activity per well was quantified on a SpetraFluor Plus (Tecan, Research Triangle Park, N.C.) using an excitation of 360 nm and an emission of 550 nm using the optimal gain function. For quantification of the number of OCL, PI (propidium iodide) (Sigma, Saint Louis, Mo.) at a final concentration of 10 ug/ml was added to the TRAP stained cells to nonspecifically stain the cells. After PI staining the 96 well plates were analyzed using an ArrayScanII (Cellomics, Pittsburgh, Pa.) on the Nuclear Translocation software. In this Nuclear Translocation software analysis, the cytoplasmic image area is not used while the nuclear image area is expanded to encompass the entire PI stained cellular area. Cell size selection was performed through nuclear size selection criteria within Channel 1 of the Nuclear Translocation software package. TRAP intensity selection was performed through total fluorescence intensity utilizing Channel 2.

[2] = test system: OCL differentiated from RAW 264.7 monocyte-macrophage cells; assay: Automated OCL counting assay (size and TRAP-intensity selected cells, ArrayScan); format: cell-based; details: day 6, FIG. 5
Procedure: as §1, §2, §3
The determination of differentiation into OCL is typically based upon morphological criteria along with staining for TRAP. […] Therefore, basing differentiation solely upon per well TRAP activity could lead to a false positive reading. To circumvent this limitation we developed an automated approach to quantify the number of OCL based upon the size of the cells in addition to TRAP activity. Due to the limitations of the software analyses, the size of the cells were used in place of number of nuclei as a selection criteria for OCL formation. The size of the cells typically correlates with cell fusion and the number of nuclei. Also while some single nucleated cells can also be large in size, these cells typically tend not to be TRAP positive. The data capture was performed using the Cellomics ArrayScan 11, which is an automated fluorescent microscope and plate handler. The data analyses were performed by using the Cellomic's “Nuclear Translocation” imaging analysis software.

[3] = test system: OCL formation; details: previously published data (Matsumoto 2000; Kumar 2001); read-out: IC50 of dose dependent inhibition of OCL formation; cited from earlier work

| Structure (SMILES) | Compound amount at which decrease of TRAP fluorescence is maximal [1] [µM] | Compound amount at which dramatic decrease of TRAP fluorescence starts [1] [µM] | Inhibition of TRAP activity (result in words) [1] | Compound amount at which decrease in quantity of TRAP positive cells counted starts [2] [µM] | Concentration at which decrease in TRAP positive cells counted is maximal (near zero amounts) [2] [µM] | IC50 [3] [nM] | Effect on TRAP activity [1] | Effect on detection of TRAP fluorescence [1] | Effect on number of TRAP positive cells counted ([2]; at 10.0 uM) | Effect on the number of OCL [2] |
| --- | --- | --- | --- | --- | --- | --- | --- | --- | --- | --- |
| C[S+]([O-])c1ccc(-c2nc(-c3ccc(F)cc3)c(-c3ccncc3)[nH]2)cc1 (stereo not drawn) [SB203580] | 10.0 | 1.0 | dose dependent inhibition of TRAP activity | 0.3 | 10.0 |  |  |  |  |  |
| Oc1ccc(-c2nc(-c3ccc(F)cc3)c(-c3ccncc3)[nH]2)cc1 [SB202190] | 10.0 | 1.0 | dose dependent inhibition of TRAP activity |  |  | 1000 |  |  |  |  |
| COc1cccc(-c2cc(=O)c3ccccc3o2)c1N [PD98059] |  |  |  |  |  |  | little effect | did not significantly inhibit | no significant decrease | little effect |
| CCc1nc(-c2ccc(OC)cc2)[nH]c1-c1ccncc1 [SB202474] |  |  |  | 0.3 | 10.0 |  | little effect | did not significantly inhibit |  | little effect |
